Test results: US20250388574A1, “HETEROCYCLIC COMPOUNDS AS TRIGGERING RECEPTOR EXPRESSED ON MYELOID CELLS 2 AGONISTS AND METHODS OF USE” (AMGEN INC., priority 2020, published 2025)

Biological target: hTREM2 (Homo sapiens, UniProt Q9NZC2)
Assay: Phospho-Syk AlphaScreen/AlphaLISA assay in TREM2 and DAP12 overexpressing HEK293 cells (Example A1)
Type: cell-based
Set-up: expressed in transfected cells
Settings: HEK293 cells; for EC50: read-out: hTREM2 EC50
Procedure: Pharmacological measurements of TREM2 signaling through DAP12 were made with TREM2 and DAP12 overexpressing HEK293 cells stable cell lines that had been single-cell cloned (“TREM2/DAP12-HEK”). The readout of the TREM2 signaling utilized Perkin Elmer AlphaScreen/AlphaLISA technology monitoring the phosphorylation levels of the Syk kinase. TREM2/DAP12-HEK cell lines were cultured in DMEM-F12 (Corning 10-092-CM) supplemented with 1× Penicillin/Streptomycin (Corning 30-002-CI), 1× GlutaMAX (Gibco 35050-061), and 10% Fetal Bovine Serum (Life Technologies 10099) referred to as “HEK Culture Medium”. Suspensions of TREM2/DAP12-HEK cells were prepared in HEK Culture Medium and dispensed into 384-well poly-D-lysine coated microplates (Corning 354661) at a density of 20,000 cells/well using a Multidrop Combi peristaltic microplate dispenser (Thermo), 25 uL volume of cell suspension/well. Plates containing cells were then incubated for 20 hours in a humidified cell culture incubator at 37° C. with 5% CO2 (Thermo). […] Assay Buffer contained diluted test articles (in 1% final DMSO concentration for compounds) or 100 nM anti-human/mouse TREM2 antibody (R&D Systems MAB17291) as a positive control, 100 nM or rat IgG2B isotype Ab as a negative control (R&D Systems MAB0061). Incubated the plates with test articles and controls for 45 minutes at room temperature and then aspirated/removed the medium from each well of the plates. Used a Multidrop Combi peristaltic liquid handler (Thermo) to dispense 15 uL/well of “Cell Lysis Immunoassay Buffer”. The Cell Lysis Immunoassay Buffer contained M-PER Mammalian Protein Extraction Reagent (Pierce/ThermoFisher 78505), 1× Halt Phosphatase Inhibitor Cocktail (ThermoFisher #78427), 0.1875 nM anti-phospho-Syk ([…]/526) ([…]) rabbit mAb (Cell Signaling Technologies catalog #2710), and 1.5 nM biotinylated Mouse anti-human Syk (4D10) antibody (BD Biosciences, catalog #624008). Incubated plates for 1 hour at room temperature after the addition of the Cell Lysis Immunoassay Buffer. Used the Multidrop Combi liquid handler to dispense 15 μL of AlphaScreen Acceptor Bead Solution containing 7.5 μg/mL anti-rabbit IgG (Fc specific) AlphaLISA Acceptor Beads (Perkin Elmer A[…]) in 1× Immunoassay buffer (Perkin Elmer A[…]) to each well of the microplates. Incubated plates for 2 hours at room temperature. Following the incubation with the AlphaLISA Acceptor Bead Solution, used a Multidrop Combi liquid handler (Thermo) to dispense 15 μL of AlphaScreen Donor Bead Solution containing 30 μg/mL of AlphaScreen Streptavidin Donor beads (Perkin Elmer 6760002B) in 1× Immunoassay buffer (Perkin Elmer A[…]) to each well of the microplates. Incubated microplates for 2 hours protected from light sources as the AlphaScreen reagents are light sensitive. Once the final incubation was completed, acquired AlphaScreen signal from the donor and acceptor beads using an Envision high throughput multi-modal microplate reader (Perkin Elmer) calibrated to the plate type with the AlphaScreen mirror and filter-set in 384-well mode, 680 nanometer excitation wavelength. The total measurement time per well was 550 milliseconds with a 180 millisecond excitation time. After reading the AlphaScreen signal for each well of the microplates, on a plate-by-plate basis, each raw test article well value (x) was normalized to a Percent of Control (“POC”) value using the following formula: […] Each plate contained 12 of each type of control wells that were used to generate the mean values. For concentration response curve analysis with test articles tested at various concentrations, the % of activation values were analyzed with 4 Parameter Logistic or Sigmoidal Dose-Response Models using GeneData Screener (GeneData, AG) or GraphPad Prism 7 (Graphpad Software, Inc.). […] This assay may be used to test any of the compounds described herein to assess and characterize a compound's ability to act as an agonist of TREM2.

hTREM2, sequence (Q9NZC2 19-230): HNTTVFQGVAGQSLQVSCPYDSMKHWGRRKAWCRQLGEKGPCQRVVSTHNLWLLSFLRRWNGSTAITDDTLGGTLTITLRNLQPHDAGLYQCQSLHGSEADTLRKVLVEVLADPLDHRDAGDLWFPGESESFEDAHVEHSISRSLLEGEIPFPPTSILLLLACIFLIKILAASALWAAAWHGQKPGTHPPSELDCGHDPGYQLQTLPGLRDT
hTREM2, sequence (O43914 22-113 partner): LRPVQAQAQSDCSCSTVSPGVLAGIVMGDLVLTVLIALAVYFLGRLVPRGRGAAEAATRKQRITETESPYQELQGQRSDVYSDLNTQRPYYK

Row | Compound | Emax | EC50 [nM]
1 | Cc1c([C@H]2CN(c3cc4nc(C)n(C)c(=O)c4c(-c4ccc(Cl)cc4F)n3)CCO2)cnn1C (single isomer, unassigned) [Example 67] | ++ (Emax>100 and ≤200) | 3000 to 100000
2 | Cc1nc2cc(N3CCO[C@@H](c4cnn(C)c4)C3)nc(-c3ccc(Cl)cc3F)c2c(=O)n1C [Example 1, 5-(4-chloro-2-fluorophenyl)-2,3-dimethyl-7-((2S)-2-(1-methyl-1H-pyrazol-4-yl)-4-morpholinyl)pyrido[4,3-d]pyrimidin-4(3H)-one] | +++ (Emax>200 and ≤300) | 50 to 500
3 | Cc1cnn([C@H]2CCCN(c3cc4nc(C)n(C)c(=O)c4c(-c4ccc(Cl)cc4F)n3)C2)c1 [Example 231, (S)-5-(4-chloro-2-fluorophenyl)-2,3-dimethyl-7-(3-(4-methyl-1H-pyrazol-1-yl)piperidin-1-yl)pyrido[4,3-d]pyrimidin-4(3H)-one] | +++ (Emax>200 and ≤300) | 500 to 3000
4 | Cc1cc([C@@H]2CN(c3cc4nc(C)n(C)c(=O)c4c(-c4ccc(Cl)cc4F)n3)CCO2)cc(C)n1 (single isomer, unassigned) [Example 76] | ++++ (Emax>300) | 50 to 500
5 | Cc1nc2cc(N3CCOC(c4ccnc(C(F)(F)F)c4)C3)nc(-c3ccc(Cl)cc3F)c2c(=O)n1C (stereo not shown) [Example 94, 5-(4-chloro-2-fluorophenyl)-2,3-dimethyl-7-(2-(2-(trifluoromethyl)-4-pyridinyl)-4-morpholinyl)pyrido[4,3-d]pyrimidin-4(3H)-one] | +++ (Emax>200 and ≤300) | < 50
6 | Cc1c([C@@H]2CN(c3cc4nc(C)n(C)c(=O)c4c(-c4ccc(Cl)cc4F)n3)CCO2)cnn1C (single isomer, unassigned) [Example 66] | +++ (Emax>200 and ≤300) | 50 to 500
7 | Cc1nc2cc(N3CCO[C@H]([C@H]4CCOC4)C3)nc(-c3ccc(Cl)cc3F)c2c(=O)n1C (single isomer, unassigned) [Example 43] | +++ (Emax>200 and ≤300) | 50 to 500
8 | CCCn1c(C)nc2cc(N3CCO[C@H](CF)C3)nc(-c3ccc(Cl)cc3F)c2c1=O [Example 193, (S)-5-(4-chloro-2-fluorophenyl)-7-(2-(fluoromethyl)morpholino)-2-methyl-3-propylpyrido[4,3-d]pyrimidin-4(3H)-one] | +++ (Emax>200 and ≤300) | 500 to 3000
9 | Cc1ccc([C@H]2C[C@@H](c3cc4nc(C)n(C)c(=O)c4c(-c4ccc(Cl)cc4F)n3)CCO2)cn1 [Example 273, 5-(4-chloro-2-fluorophenyl)-2,3-dimethyl-7-((2R,4S)-2-(6-methylpyridin-3-yl)tetrahydro-2H-pyran-4-yl)pyrido[4,3-d]pyrimidin-4(3H)-one] | ++++ (Emax>300) | 50 to 500
10 | Cc1nc2cc(N3CCO[C@H](c4ccnc(Cl)c4)C3)nc(-c3ccc(Cl)cc3F)c2c(=O)n1C (single isomer, unassigned) [Example 88] | +++ (Emax>200 and ≤300) | 500 to 3000
11 | CCCn1c(C)nc2cc(N3CCO[C@@H](C(F)F)C3)nc(-c3ccc(Cl)cc3F)c2c1=O [Example 156, 5-(4-chloro-2-fluorophenyl)-7-((2R)-2-(difluoromethyl)-4-morpholinyl)-2-methyl-3-propylpyrido[4,3-d]pyrimidin-4(3H)-one] | ++++ (Emax>300) | 500 to 3000
12 | CCCn1c(C)nc2cc(N3CCO[C@H](c4ccccc4)C3)nc(-c3ccc(Cl)cc3F)c2c1=O [Example 190, (R)-5-(4-chloro-2-fluorophenyl)-2-methyl-7-(2-phenylmorpholino)-3-propylpyrido[4,3-d]pyrimidin-4(3H)-one] | +++ (Emax>200 and ≤300) | 500 to 3000
13 | Cc1nc2cc(N3CCO[C@@H](c4cnn(C(C)C)c4)C3)nc(-c3ccc(Cl)cc3F)c2c(=O)n1C [Example 123, 5-(4-chloro-2-fluorophenyl)-2,3-dimethyl-7-((2S)-2-(1-(2-propanyl)-1H-pyrazol-4-yl)-4-morpholinyl)pyrido[4,3-d]pyrimidin-4(3H)-one] | ++++ (Emax>300) | < 50
14 | Cc1nc2cc(N3CCO[C@@H](c4cnn(CCN(C)C)c4)C3)nc(-c3ccc(Cl)cc3F)c2c(=O)n1C [Example 132, 5-(4-chloro-2-fluorophenyl)-7-((2S)-2-(1-(2-(dimethylamino)ethyl)-1H-pyrazol-4-yl)-4-morpholinyl)-2,3-dimethylpyrido[4,3-d]pyrimidin-4(3H)-one] | ++++ (Emax>300) | 50 to 500
15 | CCn1c(C(F)(F)F)nc2cc(N3CCO[C@@H](c4cnn(C)c4)C3)nc(-c3ccc(Cl)cc3F)c2c1=O [Example 144, 5-(4-chloro-2-fluorophenyl)-3-ethyl-7-((2S)-2-(1-methyl-1H-pyrazol-4-yl)-4-morpholinyl)-2-(trifluoromethyl)pyrido[4,3-d]pyrimidin-4(3H)-one] | ++++ (Emax>300) | 50 to 500
16 | Cc1nc2cc(N3CCO[C@@H]([C@H]4CCO4)C3)nc(-c3ccc(Cl)cc3F)c2c(=O)n1C (single isomer, unassigned) [Example 38] | +++ (Emax>200 and ≤300) | 500 to 3000
17 | Cc1nc2cc(N3C[C@@H](C)O[C@@H](c4cnn(C)c4)C3)nc(-c3ccc(Cl)cc3F)c2c(=O)n1C (single isomer, unassigned) [Example 28] | +++ (Emax>200 and ≤300) | < 50
18 | Cc1nc2cc(N3CCC[C@@H](N(C)C)C3)nc(-c3ccc(Cl)cc3F)c2c(=O)n1C [Example 244, (R)-5-(4-chloro-2-fluorophenyl)-7-(3-(dimethylamino)piperidin-1-yl)-2,3-dimethylpyrido[4,3-d]pyrimidin-4(3H)-one] | +++ (Emax>200 and ≤300) | 3000 to 100000
19 | Cc1nc2cc(N3CC[C@H](c4ccccn4)C3)nc(-c3ccc(Cl)cc3F)c2c(=O)n1C [Example 205, (S)-5-(4-chloro-2-fluorophenyl)-2,3-dimethyl-7-(3-(pyridin-2-yl)pyrrolidin-1-yl)pyrido[4,3-d]pyrimidin-4(3H)-one] | +++ (Emax>200 and ≤300) | 3000 to 100000
20 | Cc1nc2cc(N3CCO[C@H]([C@H]4CCO4)C3)nc(-c3ccc(Cl)cc3F)c2c(=O)n1C (single isomer, unassigned) [Example 41] | +++ (Emax>200 and ≤300) | 500 to 3000
21 | CCCn1c(C)nc2cc(N3CCO[C@@H](c4cnn(C)c4)C3)nc(-c3ccc(Cl)cc3F)c2c1=O [Example 152, 5-(4-chloro-2-fluorophenyl)-2-methyl-7-((2S)-2-(1-methyl-1H-pyrazol-4-yl)-4-morpholinyl)-3-propylpyrido[4,3-d]pyrimidin-4(3H)-one] | +++ (Emax>200 and ≤300) | < 50
22 | Cc1nc2cc(N3CCO[C@H](c4cnn(C)c4)C3)nc(-c3ccc(Cl)cc3)c2c(=O)n1C [Example 6, 5-(4-chlorophenyl)-2,3-dimethyl-7-((2R)-2-(1-methyl-1H-pyrazol-4-yl)-4-morpholinyl)pyrido[4,3-d]pyrimidin-4(3H)-one] | ++ (Emax>100 and ≤200) | 500 to 3000
23 | Cc1nc2cc(N3CCO[C@H](c4cnn(C)c4)C3)nc(-c3ccc(Cl)cc3F)c2c(=O)n1C [Example 2, 5-(4-chloro-2-fluorophenyl)-2,3-dimethyl-7-((2R)-2-(1-methyl-1H-pyrazol-4-yl)-4-morpholinyl)pyrido[4,3-d]pyrimidin-4(3H)-one] | +++ (Emax>200 and ≤300) | 500 to 3000
